The values that follow come from publication PMC7937589 (Drugs in R&D, 2020).

A short description of data set [1]: Plasma and urine pharmacokinetics of ASP3026. The data set is classed as in vivo, human. As to conditions: for Tmax: human, plasma, oral.
In data set [2] the test system is advanced solid malignancies. As to conditions: US study, patients with ALK-positive tumors, especially NSCLC; cited from earlier work.
Data set [3] concerns Japanese patients with solid tumors. The data set is classed as in vivo, human.
The subject of another data set is solid tumors. Nature of the data set: Antitumor activity, overall response by RECIST v1.1. The data set is classed as in vivo, human. As to conditions: for Partial response rate: across all treatment cycles.
Where [4] appears, read: Japanese patients, oral once daily.

As for `COc1cc(N2CCC(N3CCN(C)CC3)CC2)ccc1Nc1ncnc(Nc2ccccc2S(=O)(=O)C(C)C)n1` [ASP3026], the “Dose dependence of median Cmax and AUC24h” value in data set [1] (25 mg to 325 mg, Day 1 and Day 28, escalation cohort) is given as “increased in a dose-dependent manner”. For the same compound, the Tmax (commonly the time at which the peak concentration occurs) in data set [1] (Mean tmax across the dose groups, Day 1) lay within 2.12 to 4.52 h; in data set [1] (Mean tmax across the dose groups, Day 28), 2.48 to 3.75 h; in data set [1] (Median tmax across the dose groups, Day 1), 1.97 to 3.97 h; in data set [1] (Median tmax across the dose groups, Day 28) it was 2.48 to 3 h. Further, the Steady state achieved in data set [1] (once daily oral dosing) was ≤ 8 days. Further, the “Patients achieving partial response (PR)” value in data set [2] is on record as “Half of the patients”. Also, the “Patients with dose-limiting toxicity (DLT)” value in data set [3] (325 mg daily, Cycle 1, six patients evaluated) is listed as “Three”. Further, in data set [3] (setting [4]), the “Maximum tolerated dose (MTD)” value is recorded as 200 mg. For the same compound, the “Recommended phase II dose (RP2D)” value in data set [3] (setting [4]) is on record as 200 mg. The “Total incidence of Grade 4 TEAEs” value in data set [3] (all cohorts (1/29)) is recorded as 3.4%. For the same compound, the “Total incidence of Grade 5 TEAEs” value in data set [3] (all cohorts (1/29)) is on record as 3.4%. For the same compound, in data set [3] (all cohorts (4/29)), the “Patients reporting eye disorders” value worked out at 13.8%. In data set [3] (all cohorts (6/29)), the “Total incidence of Grade 1 TEAEs” value is on record as 20.7%. Moreover, the “Total incidence of Grade 2 TEAEs” value in data set [3] (all cohorts (8/29)) was 27.6%. In data set [3] (all cohorts (13/29)), the “Total incidence of Grade 3 TEAEs” value turned out to be 44.8%. In addition, in data set [3] (all cohorts (24/29)), the “Overall incidence of drug-related AEs” value is given as 82.8%. Moreover, in data set [3] (all treatment groups (29/29)), the “Incidence of TEAEs” value was found to be 100%. Also, in data set [3] (daily dose from 25 mg to 200 mg, Cycle 1), the “Dose-limiting toxicity (DLT)” value is given as “No DLT was observed”. Further, in the data set on solid tumors (Cycle 1, 200 mg daily, escalation (n = 3) and expansion (n = 6) cohorts), the Partial response entry was “none of the patients”. For the same compound, the “Patients with stable disease” value with solid tumors (Cycle 1, 200 mg daily, escalation cohort (n = 3)) is reported as “three”; in the data set with solid tumors (Cycle 1, 200 mg daily, expansion cohort (n = 6)), “three”. The Partial response rate is recorded as 33.3% with solid tumors (75-mg dose group (1/3)) and 25.0% in the data set with solid tumors (125-mg dose group (1/4)).
